Here are results for 5 molecules from ChEMBL document CHEMBL4028801, “A multifactorial approach to hepatobiliary transporter assessment enables improved therapeutic compound development” (Toxicol Sci, 2013).

A short description of data set [1]: Ratio of drug concentration at steady state in human at 60 to 100 mg/m2, iv via infusion for 1 hr every 3 weeks measured after 1 hr to IC50 for human BSEP overexpressed in Sf9 insect cells. The format is ADME, organism-based.
A short description of data set [2]: AUC in human at 60 to 100 mg/m2, iv via infusion for 1 hr every 3 weeks measured after 1 hr. To be noted: in vivo. In kind it is ADME, organism-based. Also on record: time < 1 hr, route intravenous.
For data set [3], the target named is ATP-binding cassette sub-family C member 3 (Homo sapiens, UniProt O15438). In words: Inhibition of human MRP3 overexpressed in Sf9 insect cell membrane vesicles assessed as uptake of [3H]-estradiol-17beta-D-glucuronide in presence of ATP and GSH measured after 10 mins by membrane vesicle transport assay. The format is ADME, cell-based.
Data set [4] addresses T1, ATP-binding cassette sub-family C member 4 (Homo sapiens, UniProt O15439).
T1 sequence (O15439 whole entry): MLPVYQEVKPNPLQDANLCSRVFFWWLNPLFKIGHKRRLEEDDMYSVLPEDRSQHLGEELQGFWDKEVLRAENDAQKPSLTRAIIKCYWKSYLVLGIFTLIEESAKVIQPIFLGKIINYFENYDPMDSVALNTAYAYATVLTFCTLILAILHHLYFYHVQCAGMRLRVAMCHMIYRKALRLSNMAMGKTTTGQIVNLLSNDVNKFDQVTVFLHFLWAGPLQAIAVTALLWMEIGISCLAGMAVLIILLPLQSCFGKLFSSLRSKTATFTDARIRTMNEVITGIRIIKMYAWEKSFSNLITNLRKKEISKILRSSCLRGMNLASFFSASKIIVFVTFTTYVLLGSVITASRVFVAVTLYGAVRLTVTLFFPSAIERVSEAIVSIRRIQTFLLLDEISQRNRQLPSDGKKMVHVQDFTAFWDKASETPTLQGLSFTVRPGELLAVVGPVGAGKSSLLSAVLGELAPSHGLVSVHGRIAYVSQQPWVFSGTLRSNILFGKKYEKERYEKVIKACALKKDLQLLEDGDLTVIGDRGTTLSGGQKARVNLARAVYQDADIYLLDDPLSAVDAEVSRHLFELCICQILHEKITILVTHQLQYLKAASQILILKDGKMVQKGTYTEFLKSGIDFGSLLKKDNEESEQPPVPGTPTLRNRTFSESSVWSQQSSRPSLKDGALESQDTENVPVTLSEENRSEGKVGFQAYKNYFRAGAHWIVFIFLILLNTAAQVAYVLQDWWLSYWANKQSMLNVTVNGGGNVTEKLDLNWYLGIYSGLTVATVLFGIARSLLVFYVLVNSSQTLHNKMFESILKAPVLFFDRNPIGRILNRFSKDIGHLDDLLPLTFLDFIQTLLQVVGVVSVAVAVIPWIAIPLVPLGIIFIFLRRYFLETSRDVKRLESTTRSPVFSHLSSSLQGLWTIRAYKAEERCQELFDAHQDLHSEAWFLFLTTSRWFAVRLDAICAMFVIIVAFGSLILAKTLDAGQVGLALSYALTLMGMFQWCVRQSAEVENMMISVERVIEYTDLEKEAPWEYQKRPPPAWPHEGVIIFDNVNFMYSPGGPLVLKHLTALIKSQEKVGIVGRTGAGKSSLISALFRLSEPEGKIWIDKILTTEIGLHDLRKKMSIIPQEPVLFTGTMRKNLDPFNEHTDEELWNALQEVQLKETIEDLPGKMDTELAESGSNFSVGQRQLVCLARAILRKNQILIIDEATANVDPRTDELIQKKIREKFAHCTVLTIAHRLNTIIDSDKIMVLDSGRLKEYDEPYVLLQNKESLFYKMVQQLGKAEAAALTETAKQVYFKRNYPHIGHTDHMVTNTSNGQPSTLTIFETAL
In words: Inhibition of human MRP4 overexpressed in Sf9 cell membrane vesicles assessed as uptake of [3H]-estradiol-17beta-D-glucuronide in presence of ATP and GSH measured after 20 mins by membrane vesicle transport assay. The format is ADME, cell-based.

For a further data set, the target named is Bile salt export pump (Homo sapiens, UniProt O95342). Description: Inhibition of human BSEP overexpressed in Sf9 cell membrane vesicles assessed as uptake of [3H]-taurocholate in presence of ATP measured after 15 to 20 mins by membrane vesicle transport assay. In kind it is ADME, cell-based.
The target in data set [5] is ATP-binding cassette sub-family C member 2 (Homo sapiens, UniProt Q92887). Description: Inhibition of human MRP2 overexpressed in Sf9 cell membrane vesicles assessed as uptake of [3H]-estradiol-17beta-D-glucuronide in presence of ATP and GSH measured after 20 mins by membrane vesicle transport assay.
Data set [6] in a line: Drug concentration at steady state in human at 60 to 100 mg/m2, iv via infusion for 1 hr every 3 weeks measured after 1 hr. The format is ADME, organism-based. To be noted: in vivo, read-out: Css.
Data set [7] in a line: Drug concentration at steady state in human at 400 to 600 mg, po QD after 24 hrs. The format is ADME, organism-based. To be noted: in vivo, read-out: Css.
The nature of data set [8]: AUC in human at 400 to 600 mg, po QD after 24 hrs. In kind it is ADME, organism-based. To be noted: in vivo.
A short description of data set [9]: Drug concentration at steady state in human at 150 to 300 mg, po QD after 24 hrs. Conditions: in vivo, read-out: Css. In kind it is ADME, organism-based.
Data set [10] in a line: AUC in human at 150 to 300 mg, po QD after 24 hrs. In kind it is ADME, organism-based. Conditions: in vivo.
The nature of data set [11]: Ratio of drug concentration at steady state in human at 150 to 300 mg, po QD after 24 hrs to IC50 for human MRP4 overexpressed in Sf9 insect cells. In kind it is ADME, organism-based. Conditions: in vivo.
Data set [12] in a line: Ratio of drug concentration at steady state in human at 150 to 300 mg, po QD after 24 hrs to IC50 for human BSEP overexpressed in Sf9 insect cells. The format is ADME, organism-based. To be noted: in vivo.
The nature of data set [13]: Ratio of drug concentration at steady state in human at 150 to 300 mg, po QD after 24 hrs to IC50 for human MRP3 overexpressed in Sf9 insect cells. In kind it is ADME, organism-based. Conditions: in vivo.
Data set [14] is described as follows: Drug concentration at steady state in human at 100 to 300 mg, po QD after 24 hrs. The format is ADME, organism-based. To be noted: in vivo, read-out: Css.
Data set [15] in a line: Ratio of drug concentration at steady state in human at 100 to 300 mg, po QD after 24 hrs to IC50 for human MRP3 overexpressed in Sf9 insect cells. The format is ADME, organism-based. To be noted: in vivo.
Data set [16] in a line: AUC in human at 100 to 300 mg, po QD after 24 hrs. Conditions: in vivo. The format is ADME, organism-based.
Data set [17] is described as follows: Ratio of drug concentration at steady state in human at 100 to 300 mg, po QD after 24 hrs to IC50 for human MRP2 overexpressed in Sf9 insect cells. Conditions: in vivo. The format is ADME, organism-based.
The nature of data set [18]: Ratio of drug concentration at steady state in human at 100 to 300 mg, po QD after 24 hrs to IC50 for human BSEP overexpressed in Sf9 insect cells. The format is ADME, organism-based. To be noted: in vivo.
Data set [19] is described as follows: Drug concentration at steady state in human at 400 mg, po BID for 5 to 10 days after 12 hrs. In kind it is ADME, organism-based. Conditions: in vivo, read-out: Css.
The nature of data set [20]: Ratio of drug concentration at steady state in human at 400 mg, po BID for 5 to 10 days after 12 hrs to IC50 for human MRP4 overexpressed in Sf9 insect cells. In kind it is ADME, organism-based. Conditions: in vivo.
Data set [21] is described as follows: Ratio of drug concentration at steady state in human at 400 mg, po BID for 5 to 10 days after 12 hrs to IC50 for human BSEP overexpressed in Sf9 insect cells. In kind it is ADME, organism-based. Conditions: in vivo.
A short description of data set [22]: AUC in human at 400 mg, po BID for 5 to 10 days after 12 hrs. In kind it is ADME, organism-based. Further details: dose 400 mg, time < 12 hr, route oral. To be noted: in vivo.

ATP-binding cassette sub-family C member 2, sequence (Q92887 whole entry, the tested form may be a part): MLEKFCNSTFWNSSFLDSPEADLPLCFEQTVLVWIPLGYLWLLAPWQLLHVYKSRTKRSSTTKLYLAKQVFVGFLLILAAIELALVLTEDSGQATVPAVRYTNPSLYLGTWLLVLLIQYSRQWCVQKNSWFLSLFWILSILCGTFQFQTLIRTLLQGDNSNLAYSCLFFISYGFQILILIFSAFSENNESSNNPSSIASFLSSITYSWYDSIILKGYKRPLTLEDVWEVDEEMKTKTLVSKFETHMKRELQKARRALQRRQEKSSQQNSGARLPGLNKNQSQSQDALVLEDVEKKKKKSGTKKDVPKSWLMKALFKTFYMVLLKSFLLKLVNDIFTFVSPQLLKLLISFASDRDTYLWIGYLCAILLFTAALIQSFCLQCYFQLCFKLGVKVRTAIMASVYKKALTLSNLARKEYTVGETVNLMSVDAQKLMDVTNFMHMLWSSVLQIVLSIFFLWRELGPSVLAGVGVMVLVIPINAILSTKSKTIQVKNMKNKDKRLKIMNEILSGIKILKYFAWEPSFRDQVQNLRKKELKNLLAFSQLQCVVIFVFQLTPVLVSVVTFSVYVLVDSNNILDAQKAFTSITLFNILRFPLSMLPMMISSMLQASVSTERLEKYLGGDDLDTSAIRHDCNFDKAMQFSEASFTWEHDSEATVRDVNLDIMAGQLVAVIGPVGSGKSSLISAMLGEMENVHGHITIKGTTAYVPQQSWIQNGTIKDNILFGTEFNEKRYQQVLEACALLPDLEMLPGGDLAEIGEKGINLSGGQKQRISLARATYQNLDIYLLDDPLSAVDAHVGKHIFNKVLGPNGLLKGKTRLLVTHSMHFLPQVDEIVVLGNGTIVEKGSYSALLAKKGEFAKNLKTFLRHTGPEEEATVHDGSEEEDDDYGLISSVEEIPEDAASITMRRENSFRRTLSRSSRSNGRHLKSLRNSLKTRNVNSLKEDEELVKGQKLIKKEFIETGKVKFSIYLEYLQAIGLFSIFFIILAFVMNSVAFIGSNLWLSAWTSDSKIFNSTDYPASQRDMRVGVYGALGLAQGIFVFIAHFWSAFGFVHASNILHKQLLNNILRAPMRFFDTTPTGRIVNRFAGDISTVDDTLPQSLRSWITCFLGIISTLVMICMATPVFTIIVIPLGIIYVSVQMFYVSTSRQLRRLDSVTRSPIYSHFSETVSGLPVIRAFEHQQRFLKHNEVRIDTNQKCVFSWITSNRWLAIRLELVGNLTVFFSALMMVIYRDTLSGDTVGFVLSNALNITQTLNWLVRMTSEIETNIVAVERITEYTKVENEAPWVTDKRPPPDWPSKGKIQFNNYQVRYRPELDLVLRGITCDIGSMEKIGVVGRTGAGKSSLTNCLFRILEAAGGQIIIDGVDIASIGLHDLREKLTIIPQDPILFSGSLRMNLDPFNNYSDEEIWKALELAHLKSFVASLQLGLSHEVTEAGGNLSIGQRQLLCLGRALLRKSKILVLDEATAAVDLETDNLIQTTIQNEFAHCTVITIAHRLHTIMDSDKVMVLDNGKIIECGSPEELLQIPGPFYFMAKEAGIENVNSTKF
Bile salt export pump, sequence (O95342 whole entry): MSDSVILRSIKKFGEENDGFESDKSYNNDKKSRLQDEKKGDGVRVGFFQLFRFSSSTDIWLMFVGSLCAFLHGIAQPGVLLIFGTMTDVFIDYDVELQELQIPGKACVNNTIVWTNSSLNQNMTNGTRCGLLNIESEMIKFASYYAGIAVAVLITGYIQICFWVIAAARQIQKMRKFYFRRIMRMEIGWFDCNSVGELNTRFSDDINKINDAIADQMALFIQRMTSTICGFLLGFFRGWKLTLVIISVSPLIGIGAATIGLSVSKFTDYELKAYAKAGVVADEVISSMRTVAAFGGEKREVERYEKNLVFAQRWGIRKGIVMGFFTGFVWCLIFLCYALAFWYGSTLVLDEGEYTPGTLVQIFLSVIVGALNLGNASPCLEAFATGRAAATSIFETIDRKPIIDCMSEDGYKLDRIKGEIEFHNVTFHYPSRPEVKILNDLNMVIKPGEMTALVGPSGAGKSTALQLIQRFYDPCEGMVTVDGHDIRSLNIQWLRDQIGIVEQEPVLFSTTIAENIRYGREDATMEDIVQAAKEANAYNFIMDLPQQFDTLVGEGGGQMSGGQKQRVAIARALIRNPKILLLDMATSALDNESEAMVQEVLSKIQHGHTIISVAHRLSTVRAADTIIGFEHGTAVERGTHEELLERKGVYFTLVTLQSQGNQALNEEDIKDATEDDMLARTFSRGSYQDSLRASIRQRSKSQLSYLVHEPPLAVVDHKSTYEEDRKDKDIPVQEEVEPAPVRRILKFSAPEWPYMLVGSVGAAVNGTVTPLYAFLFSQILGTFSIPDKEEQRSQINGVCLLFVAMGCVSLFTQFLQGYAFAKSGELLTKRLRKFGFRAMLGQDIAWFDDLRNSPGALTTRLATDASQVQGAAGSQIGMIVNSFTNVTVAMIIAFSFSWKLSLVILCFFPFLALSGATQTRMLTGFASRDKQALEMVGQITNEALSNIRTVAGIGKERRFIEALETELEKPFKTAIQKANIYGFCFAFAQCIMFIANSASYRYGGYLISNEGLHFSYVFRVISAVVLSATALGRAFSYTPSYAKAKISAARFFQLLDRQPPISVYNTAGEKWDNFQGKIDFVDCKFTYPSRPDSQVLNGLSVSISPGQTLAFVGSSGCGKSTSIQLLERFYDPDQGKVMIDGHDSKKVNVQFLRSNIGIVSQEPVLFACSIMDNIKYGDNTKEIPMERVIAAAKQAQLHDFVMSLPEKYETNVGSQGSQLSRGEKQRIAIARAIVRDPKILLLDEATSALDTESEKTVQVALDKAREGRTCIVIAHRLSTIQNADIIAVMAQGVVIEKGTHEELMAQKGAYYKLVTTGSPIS
ATP-binding cassette sub-family C member 3, sequence (O15438 whole entry): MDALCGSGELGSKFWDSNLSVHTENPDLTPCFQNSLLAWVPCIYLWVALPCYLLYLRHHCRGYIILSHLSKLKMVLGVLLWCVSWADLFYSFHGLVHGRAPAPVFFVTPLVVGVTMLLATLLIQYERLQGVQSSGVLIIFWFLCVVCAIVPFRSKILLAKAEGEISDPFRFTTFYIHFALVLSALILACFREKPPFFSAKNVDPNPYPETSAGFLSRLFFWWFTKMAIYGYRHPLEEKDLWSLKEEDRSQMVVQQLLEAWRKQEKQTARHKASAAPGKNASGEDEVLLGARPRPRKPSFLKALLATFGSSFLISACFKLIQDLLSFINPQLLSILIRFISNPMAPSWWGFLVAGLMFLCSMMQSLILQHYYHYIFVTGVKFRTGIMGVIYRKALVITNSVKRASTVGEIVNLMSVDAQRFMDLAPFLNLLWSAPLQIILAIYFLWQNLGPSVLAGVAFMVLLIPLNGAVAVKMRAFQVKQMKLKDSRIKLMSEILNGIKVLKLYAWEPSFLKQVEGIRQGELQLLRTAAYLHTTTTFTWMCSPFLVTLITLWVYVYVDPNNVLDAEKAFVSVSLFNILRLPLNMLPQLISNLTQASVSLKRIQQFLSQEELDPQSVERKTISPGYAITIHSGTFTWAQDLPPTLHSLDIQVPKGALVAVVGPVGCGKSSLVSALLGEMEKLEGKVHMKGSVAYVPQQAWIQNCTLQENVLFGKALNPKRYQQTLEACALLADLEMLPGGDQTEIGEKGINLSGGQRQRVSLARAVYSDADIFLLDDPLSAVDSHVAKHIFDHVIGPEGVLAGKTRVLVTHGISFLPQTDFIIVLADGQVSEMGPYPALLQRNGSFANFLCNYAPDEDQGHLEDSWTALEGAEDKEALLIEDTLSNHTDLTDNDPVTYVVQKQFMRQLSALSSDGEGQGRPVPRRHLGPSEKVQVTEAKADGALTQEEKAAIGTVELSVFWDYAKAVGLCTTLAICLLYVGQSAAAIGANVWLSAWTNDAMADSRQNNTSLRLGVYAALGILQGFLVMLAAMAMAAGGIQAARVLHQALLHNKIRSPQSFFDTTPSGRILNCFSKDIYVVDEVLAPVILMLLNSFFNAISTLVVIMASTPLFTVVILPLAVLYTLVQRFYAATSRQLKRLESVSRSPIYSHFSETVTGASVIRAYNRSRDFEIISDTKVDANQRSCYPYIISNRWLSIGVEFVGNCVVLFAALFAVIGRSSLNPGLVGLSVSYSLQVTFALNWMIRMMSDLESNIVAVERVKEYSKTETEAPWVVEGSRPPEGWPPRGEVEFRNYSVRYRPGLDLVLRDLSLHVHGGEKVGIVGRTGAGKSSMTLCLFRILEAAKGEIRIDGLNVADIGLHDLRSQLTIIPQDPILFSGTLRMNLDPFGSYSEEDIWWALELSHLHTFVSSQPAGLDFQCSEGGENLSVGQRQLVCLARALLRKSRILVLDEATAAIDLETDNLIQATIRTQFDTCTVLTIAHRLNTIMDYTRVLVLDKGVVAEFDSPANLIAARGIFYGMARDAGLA

For the molecule `CC(=O)O[C@@]12CO[C@@H]1C[C@H](O)[C@@]1(C)C(=O)[C@H](O)C3=C(C)[C@@H](OC(=O)[C@H](O)[C@@H](NC(=O)OC(C)(C)C)c4ccccc4)C[C@@](O)([C@@H](OC(=O)c4ccccc4)[C@H]21)C3(C)C` [DOCETAXEL ANHYDROUS], the Ratio in data set [1] worked out at 0.16. The molecule also showed an AUC at 1 h in [2] of 6.51 µM·h. Besides, the IC50 in data set [3] was > 133 µM; in data set [4], > 133 µM; on Bile salt export pump, 41 µM; in data set [5] it was > 133 µM. Besides, in [6], the concentration at 1 h is 6520 nM.

For the molecule `Cc1ccc(NC(=O)c2ccc(CN3CCN(C)CC3)cc2)cc1Nc1nccc(-c2cccnc2)n1` [IMATINIB], the concentration at 24 h in data set [7] stood at 4410 nM. Moreover, the 50% inhibitory concentration (IC50) in data set [3], in [4] and in [5] was > 133 µM each time. Besides, in data set [8], the AUC at 24 h was 106 µM·h.

As to `CCCCC1=NC2(CCCC2)C(=O)N1Cc1ccc(-c2ccccc2-c2nnn[nH]2)cc1` [IRBESARTAN], the concentration at 24 h in [9] was 2200 nM. The molecule also yielded an AUC at 24 h in data set [10] of 52.9 µM·h. The Ratio in data set [11] is recorded as 0.026; in data set [12], 0.301; in [13], 0.104. For the same molecule, the IC50 in data set [3] worked out at 21.1 µM; in data set [4] it was 83.2 µM; at Bile salt export pump it was 7.31 µM.

In the case of `Cc1cc2c(cc1CC(=O)c1sccc1S(=O)(=O)Nc1onc(C)c1Cl)OCO2` [SITAXENTAN], the concentration at 24 h in [14] was determined as 2000 nM. Besides, the Ratio in [15] came out at 0.07; in data set [17], 0.044; in data set [18], 0.158. The same molecule registered an area under the curve (AUC) at 24 h in data set [16] of 47.9 µM·h. In addition, the figures for the IC50 (in [3]; in [4]; at Bile salt export pump) were 45.4 µM, 28.4 µM and 12.6 µM, respectively.

With `CC[C@H]1OC(=O)[C@H](C)C(=O)[C@H](C)[C@@H](O[C@@H]2O[C@H](C)C[C@H](N(C)C)[C@H]2O)[C@](C)(OC)C[C@@H](C)C(=O)[C@H](C)[C@H]2N(CCCCn3cnc(-c4cccnc4)c3)C(=O)O[C@]12C` [TELITHROMYCIN], the concentration at 12 h in [19] came to 964 nM. Moreover, the values for the Ratio in data set [20] and in data set [21] were 0.136 and 0.193, respectively. The molecule further showed an area under the curve (AUC) at 12 h in data set [22] of 11.6 µM·h. Further, the IC50 was > 133 µM in data set [3], 7.1 µM in data set [4], 5 µM at Bile salt export pump and > 133 µM in data set [5].

What is called AUC is concentration integrated over time. Broadly, the IC50 is the concentration at which inhibition is half-maximal.
